Results: US20260184675A1, “CHIRAL ISOMERIC SULFITE COMPOUND AND APPLICATION THEREOF” (Chengdu Hanova BioSciences Co., Ltd, priority 2024, published 2026)
Values joined by “and” are separate entries in the source; they are usually repeats but may differ in a detail not shown here. Equal entries are not always repeated.

Assays:
eggs of Aleyrodidae = assay: Effect on hatching of eggs of Aleyrodidae, leaf disc method; type: in vivo; settings: 10 ppm; for Hatching rate (%), Replicate 1 / Hatching rate (%), Replicate 2 / Hatching rate (%), Replicate 3 / Number of hatched larvae 5 days after insecticide delivery, Replicate 1 / Number of hatched larvae 5 days after insecticide delivery, Replicate 2 / Number of hatched larvae 5 days after insecticide delivery, Replicate 3: Aleyrodidae eggs; for Hatching rate (%), Replicate 1 / Hatching rate (%), Replicate 2 / Hatching rate (%), Replicate 3: 5 days after delivery; for Number of hatched larvae 5 days after insecticide delivery, Replicate 1 / Number of hatched larvae 5 days after insecticide delivery, Replicate 2 / Number of hatched larvae 5 days after insecticide delivery, Replicate 3: leaf disc
Protocol: (§1) • (1) Preparation of leaf discs containing eggs: 20 female adult mites of Tetranychus cinnabarinus were transferred onto leaf discs of Vicia faba with a diameter of 2.0 cm (with wetted filter paper at the bottom), then covered it with a lidded culture dish and cultivated under moisturizing conditions, the adult mites were removed within 36 hours and microscopic examination and counting were performed on leaf discs containing eggs. • (2) Investigation of egg population base: Before pesticide soaking, a microscopic examination was conducted on the egg basic number of each leaf disc, with 2 replicates set for each treatment. • (3) Pesticide soaking treatment: The leaf butterflies loaded with mite eggs were soaked in clear water and sulfite compounds for 10 seconds, respectively, then taken out and cultivated under moisturizing conditions. Each treatment should be repeated for no less than 3 times. • (4) Cultivation and observation: The […] were cultivated under normal conditions. Five days after insecticide delivery, the hatching status of mite eggs was investigated. • Note: The temperature and humidity conditions of the constant temperature and humidity incubator after the treatment should be controlled so as to avoid excessive temperature differences, which may cause generation and dripping of condensate water in the culture dish, resulting in abnormal death of eggs due to soaking in water; it is also necessary to ensure sufficient strong ambient light, without directing irradiating the leaves. • (5) Survey of Results: The experimental materials of each treatment group were regularly hydrated and moisturized, and the hatching of eggs was observed. On the 7th day after insecticide delivery, the number of hatched eggs for each treatment was recorded, and the survey of results was recorded in the original notebook. According to the experimental requirements and characteristics of agents, the survey time can be shortened or extended.
• 1) Surveying and recording the number of hatched eggs for each treatment. • 2) Photographing and recording whether there was any pesticide damage to the leaf discs of Vicia faba. • 3) Recording the developmental status of experimental mite eggs, behavior status of nymph mites, including abnormal phenomena such as delayed or stopped development of mite eggs, difficulty in breaking hull for nymph mites, or painful struggles after hatching, etc. • (6) Calculation method: Based on the survey data, the prevention and control effect of each treatment was calculated according to the following formula, and the calculation results were kept to two decimal places.
This test adopted the method in Test Example 1 of technical section, mainly used leaf disc method to explore the inhibitory effect on hatching of eggs of Aleyrodidae by compounds 1-(S,S), 1-(S,R), 1-(R,R), 1-(R,S), 1′-(S,S), 1′-(S,R), 1′-(R,R), 1′-(R,S), compound 1, compound 1′, S-10, R-10, S-10′, R-10′, compound 10, compound 10′, compound 19-(S,S), 19-(S,R), 19-(R,R), 19-(R,S), 19′-(S,S), 19′-(S,R), 19′-(R,R), 19′-(R,S), compound 19, and compound 19′. The concentration of all compounds was 10 ppm.

[1] = system: pest eggs of Tetranychus cinnabarinus; assay: Effect on hatching of pest eggs of Tetranychus cinnabarinus, leaf disc method; type: in vivo; settings: for Hatching rate (%): 7 days after insecticide delivery
Protocol: as §1, with “extended. • 1) Surveying and recording the number of hatched eggs for each treatment. • 2) Photographing and recording whether there was any pesticide damage to the leaf discs of Vicia faba. • 3) Recording the developmental status of experimental mite eggs, behavior status of nymph mites, including abnormal phenomena such as delayed or stopped development of mite eggs, difficulty in breaking hull for nymph mites, or painful struggles after hatching, etc. • (6) Calculation method: Based on the survey data, the prevention and control effect of each treatment was calculated according to the following formula, and the calculation results were kept to two decimal places. [formula] [formula] [table]” for “extended.”

Magnaporthe grisea = type: cell-based; settings: 100 ppm; for Average antifungal rate (%) / Antifungal rate of Magnaporthe grisea (%), Replicate 1 / Antifungal rate of Magnaporthe grisea (%), Replicate 2 / Antifungal rate of Magnaporthe grisea (%), Replicate 3: 96-well plate; for Average antifungal rate (%): average of 3 replicates
[2] = system: eggs of Harmonia axyridis; assay: Effect on hatching of eggs of Harmonia axyridis, egg card immersion; type: in vivo; settings: 100 ppm; for Number of hatched larvae 4 days after insecticide delivery, Replicate 1 / Number of hatched larvae 4 days after insecticide delivery, Replicate 2 / Number of hatched larvae 4 days after insecticide delivery, Replicate 3: Harmonia axyridis egg cards, immersed 30 seconds; for Hatching rate (%), Replicate 1 / Hatching rate (%), Replicate 2 / Hatching rate (%), Replicate 3: Harmonia axyridis eggs, 4 days after delivery
Description: The eggs of Harmonia axyridis cards (with approximately 20 eggs per card) were purchased from Henan Jiyuan Baiyun Industry Co., Ltd. in Henan Province. The number of eggs on the egg cards was counted as the basic number before insecticide delivery, and 5 cards were used as one treatment, with 3 replicates per treatment. After immersing the egg cards in a 100 ppm insecticide solution for 30 seconds, they were taken out and air dried, then cultivated under moisturizing conditions, and the […] were cultivated at 27° C. 4 days after insecticide delivery, the hatching status of eggs of Harmonia axyridis was investigated, and the prevention and control effect was calculated according to the following formula. [formula] [formula]

SMILES	Hatching rate (%), Replicate 1 (eggs of Aleyrodidae) [%]	Hatching rate (%), Replicate 2 (eggs of Aleyrodidae) [%]	Hatching rate (%), Replicate 3 (eggs of Aleyrodidae) [%]	Number of hatched larvae 5 days after insecticide delivery, Replicate 1 (eggs of Aleyrodidae)	Hatching rate (%) ([1]; 0.25 mg/L, Replicate 1)	Hatching rate (%) ([1]; 0.25 mg/L, Replicate 2)	Number of hatched larvae 7 days after insecticide delivery ([1]; 0.25 mg/L, Replicate 1)	Number of hatched larvae 7 days after insecticide delivery ([1]; 0.25 mg/L, Replicate 2)	Hatching rate (%) ([1]; 0.5 mg/L, Replicate 1)	Hatching rate (%) ([1]; 0.5 mg/L, Replicate 2)	Number of hatched larvae 7 days after insecticide delivery ([1]; 0.5 mg/L, Replicate 2)	Hatching rate (%) ([1]; 1 mg/L, Replicate 1)	Hatching rate (%) ([1]; 1 mg/L, Replicate 2)	Number of hatched larvae 7 days after insecticide delivery ([1]; 1 mg/L, Replicate 1)	Number of hatched larvae 7 days after insecticide delivery ([1]; 1 mg/L, Replicate 2)	inhibitory rate against Magnaporthe grisea (in words) (Magnaporthe grisea)	Average antifungal rate (%) (Magnaporthe grisea)	Antifungal rate of Magnaporthe grisea (%), Replicate 1 (Magnaporthe grisea) [%]	Antifungal rate of Magnaporthe grisea (%), Replicate 2 (Magnaporthe grisea) [%]	Antifungal rate of Magnaporthe grisea (%), Replicate 3 (Magnaporthe grisea) [%]	further results
CC[C@H](COS(=O)OCCF)Oc1ccc(Cl)cc1Cl (stereo partly drawn) [19′-(R,S)]	10.32	9.40	11.49	13	70.31	71.43	19	20	46.48	44.93	38	6.00	6.45	47	58	strong inhibitory rate	97.19% and 86.12%	85.69	86.41	86.27	Number of hatched larvae 5 days after insecticide delivery, Replicate 2 (eggs of Aleyrodidae): 11; Number of hatched larvae 5 days after insecticide delivery, Replicate 3 (eggs of Aleyrodidae): 10; Number of hatched larvae 7 days after insecticide delivery ([1]; 0.5 mg/L, Replicate 1): 38; Number of hatched larvae 4 days after insecticide delivery, Replicate 1 [2]: 11; Number of hatched larvae 4 days after insecticide delivery, Replicate 2 [2]: 10; Number of hatched larvae 4 days after insecticide delivery, Replicate 3 [2]: 9; Hatching rate (%), Replicate 1 [2]: 10.28%; Hatching rate (%), Replicate 2 [2]: 10.53%; Hatching rate (%), Replicate 3 [2]: 9.78%
CCC(COc1ccc(Cl)cc1Cl)OS(=O)OCCF [19-(R,R)]	–	–	–	–	75.00	76.00	18	18	36.23	36.00	34	14.89	16.67	40	55	strong inhibitory rate	82.77%	81.29	83.56	83.45	Hatching rate (%), Replicate 1 (eggs of Aleyrodidae; listed as 19-(R, R)): 11.96%; Hatching rate (%), Replicate 2 (eggs of Aleyrodidae; listed as 19-(R, R)): 10.20%; Hatching rate (%), Replicate 3 (eggs of Aleyrodidae; listed as 19-(R, R)): 11.20%; Number of hatched larvae 5 days after insecticide delivery, Replicate 1 (eggs of Aleyrodidae; listed as 19-(R, R)): 11; Number of hatched larvae 5 days after insecticide delivery, Replicate 2 (eggs of Aleyrodidae; listed as 19-(R, R)): 10; Number of hatched larvae 5 days after insecticide delivery, Replicate 3 (eggs of Aleyrodidae; listed as 19-(R, R)): 14; Number of hatched larvae 4 days after insecticide delivery, Replicate 1 ([2]; listed as 19-(R, R)): 14; Number of hatched larvae 4 days after insecticide delivery, Replicate 2 ([2]; listed as 19-(R, R)): 15; Number of hatched larvae 4 days after insecticide delivery, Replicate 3 ([2]; listed as 19-(R, R)): 14; Hatching rate (%), Replicate 1 ([2]; listed as 19-(R, R)): 14.43%; Hatching rate (%), Replicate 2 ([2]; listed as 19-(R, R)): 14.42%; Hatching rate (%), Replicate 3 ([2]; listed as 19-(R, R)): 13.73%
CC[C@@H](COc1ccc(Cl)cc1Cl)OS(=O)OCCF (stereo partly drawn) [19-(S,R)]	0.00	0.00	0.00	0	43.55	45.61	35	31	5.13	5.26	54	0.00	0.00	60	68	strong inhibitory rate	99.77%	100.10	99.34	99.87	inhibitory activity on the hatching of eggs of Aleyrodidae (in words) (eggs of Aleyrodidae): strong inhibitory activities; Number of hatched larvae 5 days after insecticide delivery, Replicate 2 (eggs of Aleyrodidae): 0; Number of hatched larvae 5 days after insecticide delivery, Replicate 3 (eggs of Aleyrodidae): 0; Number of hatched larvae 7 days after insecticide delivery ([1]; 0.5 mg/L, Replicate 1): 74; inhibitory effect on the hatching of pest eggs of Tetranychus cinnabarinus (in words) ([1]; 1 ppm): excellent inhibitory effects; inhibitory activity on the hatching of eggs of Harmonia axyridis (in words) [2]: strong inhibitory activities; Number of hatched larvae 4 days after insecticide delivery, Replicate 1 [2]: 0; Number of hatched larvae 4 days after insecticide delivery, Replicate 2 [2]: 0; Number of hatched larvae 4 days after insecticide delivery, Replicate 3 [2]: 0; Hatching rate (%), Replicate 1 [2]: 0.00%; Hatching rate (%), Replicate 2 [2]: 0.00%; Hatching rate (%), Replicate 3 [2]: 0.00%
